The source made the active and inactive calls. No cut-off for these calls is given here.

The test system of test [1] is Salmonella typhimurium. Put plainly: Antibiofilm activity in Salmonella Typhimurium ATCC 14028 assessed as inhibition of biofilm formation at 25 degC after 24 hrs. The settings on record: Salmonella enterica, ATCC 14028, 24 h. Format: functional, organism-based, Salmonella enterica subsp. enterica serovar Typhimurium.
Test [2] relates to Pseudomonas aeruginosa. Put plainly: Antibiofilm activity in Pseudomonas aeruginosa assessed as inhibition of biofilm formation at 25 degC after 24 hrs. In kind it is functional, organism-based.
Test [3] has as its system Pseudomonas aeruginosa. In words: Antimicrobial activity against Pseudomonas aeruginosa assessed as inhibition of planktonic growth at 10 uM at 25 degC after 24 hrs. In kind it is functional, organism-based.
Test [4] relates to Pseudomonas aeruginosa. In words: Antimicrobial activity against Pseudomonas aeruginosa assessed as inhibition of planktonic growth at 5 uM at 25 degC after 24 hrs. In kind it is functional, organism-based.
The test system of test [5] is Pseudomonas aeruginosa. In words: Antimicrobial activity against Pseudomonas aeruginosa assessed as inhibition of planktonic growth at 20 uM at 25 degC after 24 hrs. Format: functional, organism-based.
Test [6] has as its system Salmonella typhimurium. In words: Antimicrobial activity against Salmonella Typhimurium ATCC 14028 assessed as inhibition of planktonic growth at 40 uM at 25 degC after 24 hrs. Format: functional, organism-based. To be noted: Salmonella enterica subsp. enterica serovar Typhimurium.
The subject of test [7] is Salmonella typhimurium. Put plainly: Antimicrobial activity against Salmonella Typhimurium ATCC 14028 assessed as inhibition of planktonic growth at 20 uM at 25 degC after 24 hrs. In kind it is functional, organism-based. To be noted: Salmonella enterica subsp. enterica serovar Typhimurium.
The test system of test [8] is Salmonella typhimurium. In words: Antimicrobial activity against Salmonella Typhimurium ATCC 14028 assessed as inhibition of planktonic growth at 10 uM at 25 degC after 24 hrs. In kind it is functional, organism-based. To be noted: Salmonella enterica subsp. enterica serovar Typhimurium.
Test [9] concerns Salmonella typhimurium. In words: Antimicrobial activity against Salmonella Typhimurium ATCC 14028 assessed as inhibition of planktonic growth at 4 uM at 25 degC after 24 hrs. In kind it is functional, organism-based. The settings on record: Salmonella enterica subsp. enterica serovar Typhimurium.
For test [10], the system named is Salmonella typhimurium. Put plainly: Antimicrobial activity against Salmonella Typhimurium ATCC 14028 assessed as inhibition of planktonic growth at 80 uM at 25 degC after 24 hrs. Format: functional, organism-based. The settings on record: Salmonella enterica subsp. enterica serovar Typhimurium.
Test [11] has as its system Pseudomonas aeruginosa. In words: Antimicrobial activity against Pseudomonas aeruginosa assessed as inhibition of planktonic growth at 40 uM at 25 degC after 24 hrs. In kind it is functional, organism-based.
Test [12] relates to Pseudomonas aeruginosa. Put plainly: Antimicrobial activity against Pseudomonas aeruginosa assessed as inhibition of planktonic growth at 80 uM at 25 degC after 24 hrs. In kind it is functional, organism-based.

For orientation: IC50 means the concentration that gives 50% inhibition. Consider `Nc1ncc(-c2ccc(Cl)cc2)n1C1CCCCCC1`, for which the half-maximal inhibitory concentration (IC50) in test [1] was 15.7 µM; in test [2], 4 µM. The inhibition result in [3], in test [4] and in test [5] was “inactive” in each case.

As for `Nc1nc(-c2ccc(F)cc2)c(-c2ccc(F)cc2)[nH]1`, the IC50 in test [1] was 18.2 µM. For the same compound, the inhibition result in test [6], in test [7] and in [10] was “Active” throughout. Moreover, the inhibition result in [8] and in test [9] was “inactive” in each case.

As for `CCCCCCCn1c(-c2ccccc2)cnc1N`, the figures for the IC50 in [1] and in test [2] were 12.2 µM and 6.8 µM, respectively. Further, the inhibition entry in test [11], in [4] and in [5] was “inactive” each time.

For `CCCCCCCn1c(-c2ccc(Cl)cc2)cnc1N`, the IC50 came out at 9.5 µM in [1] and 2.6 µM in [2]. For the same compound, the inhibition entry in test [8] and in [3] was “Active” in each case. The inhibition entry in test [9] and in test [4] was “inactive” in each case.

Take `CCCCCCCCn1c(-c2ccc(Cl)cc2)cnc1N`: the IC50 worked out at 5.9 µM in [1] and 4 µM in test [2]. The inhibition result in test [7], in test [8], in [9], in test [3] and in test [5] was “Active” each time. In addition, the inhibition entry in test [4] was “inactive”.

As to `CCCCCCCCCCCCCn1c(-c2ccc(-c3ccccc3)cc2)cnc1N`, the values for the IC50 in [1] and in test [2] were above 800 µM and above 400 µM, respectively. The inhibition entry in test [11] and in [4] was “inactive” throughout.

As for `CCn1c(-c2ccc(Cl)cc2)cnc1N`, the IC50 in test [1] was 53.2 µM; in test [2], 11.3 µM. Further, the inhibition result in test [6] and in test [10] was “Active” throughout. Also, the inhibition result in [7], in [8], in test [9], in test [3] and in test [5] was “inactive” each time.

For `CCCCCCCC[n+]1c(-c2ccc(-c3ccc([N+](=O)[O-])cc3)cc2)cn2cccnc21.[O-][Cl+3]([O-])([O-])[O-]`, the IC50 in test [1] came to 1.5 µM; in [2] it was 1 µM. Further, the inhibition entry in test [8], in [9], in test [11], in test [3], in test [4] and in test [5] was “Active” in each case.

Take `Nc1nc(-c2ccccc2)c(-c2ccccc2)n1C1CCCCC1`: the values for the IC50 in test [1] and in test [2] were 23.9 µM and 5 µM, respectively. Moreover, the inhibition entry in test [6], in test [7], in [8], in test [11], in [10] and in test [5] was “inactive” throughout.

With `Nc1ncc(-c2ccccc2)n1C1CCC1`, the IC50 in test [1] was found to be 116 µM; in test [2], 19.9 µM. The inhibition result in test [11], in [12] and in [5] was “inactive” each time.

`CCn1c(-c2ccc(-c3ccccc3)cc2)cnc1N`: the IC50 in [1] came to 14 µM; in test [2], 95.1 µM. Further, the inhibition entry in test [6] and in test [10] was “Active” throughout. Further, the inhibition entry in test [7], in test [8] and in [9] was “inactive” throughout.

`CC(C)n1c(-c2ccccc2)cnc1N`: the IC50 in test [1] stood at 176 µM; in [2], 4.5 µM. Further, the inhibition result in test [3] and in [4] was “inactive” each time.

`CCCCCCCCn1c(-c2ccc([N+](=O)[O-])cc2)cnc1N`: the IC50 in test [1] stood at 35.4 µM. In addition, the inhibition entry in test [6] and in test [10] was “Active” each time.

For `CCCCCCCCCn1c(-c2ccccc2)cnc1N`, the IC50 stood at 6 µM in test [1] and 8.4 µM in test [2]. For the same compound, the inhibition entry in test [7], in test [8] and in test [5] was “Active” each time. Further, the inhibition entry in test [9], in test [3] and in [4] was “inactive” in each case.

On to `Nc1ncc(-c2ccc(-c3ccccc3)cc2)n1C1CCCCCCC1`, for which the IC50 in test [1] turned out to be 22.9 µM; in test [2] it was 3.2 µM. Besides, the inhibition result in test [7] was “Active”. Also, the inhibition result in test [11], in [3], in test [4] and in test [5] was “inactive” throughout.

For `Nc1nc(-c2ccc(Cl)cc2)c(-c2ccc(C(F)(F)F)cc2)[nH]1`, in [1], the IC50 was determined as 10.8 µM. Besides, the inhibition entry in [6], in [7], in test [8] and in [10] was “Active” in each case. Further, the inhibition entry in test [9] is “inactive”.

On to `Nc1ncc(-c2ccc(Cl)cc2)n1C1CCCCC1`, for which the IC50 in test [1] was determined as 33.2 µM; in [2], 11.2 µM. Further, the inhibition entry in [11], in [4] and in test [5] was “inactive” each time.

Consider `Nc1ncc(-c2ccccc2)n1C1CCCCCCCCCCC1`, for which the IC50 in test [1] was 14.6 µM; in test [2], above 800 µM. The inhibition entry in test [6], in [8] and in test [10] was “inactive” in each case.

As for `CCCCCCCCCn1c(-c2ccc(-c3ccccc3)cc2)cnc1N`, the IC50 in test [1] was 16.4 µM; in test [2], above 400 µM. Further, the inhibition entry in test [6] and in [10] was “Active” throughout. For the same compound, the inhibition entry in test [7] was “inactive”.

Consider `Nc1ncc(-c2ccc(-c3ccccc3)cc2)n1C1CCCC1`, for which the figures for the IC50 in test [1] and in [2] were 7.5 µM and 353 µM, respectively. Moreover, the inhibition entry in [6], in test [7] and in [10] was “Active” throughout. The inhibition entry in test [8] and in [9] was “inactive” throughout.

Turning to `CCCCCn1c(-c2ccc(Cl)cc2)cnc1N`, the IC50 turned out to be 8 µM in test [1] and 6 µM in test [2]. The inhibition result in test [6] and in test [7] was “Active” in each case. Further, the inhibition result in test [8], in [9], in [3], in [4] and in test [5] was “inactive” each time.

`CCCCCCCCn1c(-c2ccc(F)cc2)cnc1N`: the IC50 was 10.8 µM in [1] and 4.9 µM in test [2]. The inhibition entry in test [7], in test [3] and in test [5] was “Active” in each case. Moreover, the inhibition entry in test [8] and in test [4] was “inactive” throughout.

`CCCCCCCCn1c(-c2ccc(SC)cc2)cnc1N`: the IC50 in [1] came to 6.7 µM; in [2], 2.8 µM. Moreover, the inhibition result in [8], in [3] and in test [5] was “Active” throughout. Further, the inhibition entry in [9] and in [4] was “inactive” in each case.

Take `Cc1ccc(-c2[nH]c(N)nc2-c2ccc(Cl)cc2)cc1`: in test [1], the concentration for half-maximal inhibition (IC50) was determined as 12.9 µM. For the same compound, the inhibition entry in [6], in [7], in test [8] and in test [10] was “Active” each time. Further, the inhibition result in [9] was “inactive”.

Consider `CCCCCCCCCCCCn1c(-c2ccc(-c3ccccc3)cc2)cnc1N`, for which the results for the IC50 in test [1] and in test [2] were 167 µM and above 400 µM, respectively. The inhibition result in test [11] and in test [4] was “inactive” throughout.

In the case of `CCCCCCCC[n+]1c(-c2cccc3ccccc23)cn2cccnc21.[O-][Cl+3]([O-])([O-])[O-]`, the values for the IC50 in test [1] and in [2] were 6 µM and 6.8 µM, respectively. For the same compound, the inhibition result in test [8], in test [11], in test [3] and in test [5] was “Active” throughout. The inhibition result in test [9] and in test [4] was “inactive” throughout.

With `CCCCCCn1c(-c2ccc(Cl)cc2)cnc1N`, the IC50 in [1] was 4.9 µM; in [2], 5.4 µM. Further, the inhibition result in test [8] and in test [9] was “Active” each time. Besides, the inhibition entry in test [3] and in test [4] was “inactive” each time.

Take `CCCCn1c(-c2ccccc2)cnc1N`: the IC50 was found to be 51.9 µM in [1] and 2.1 µM in test [2]. In addition, the inhibition result in [3] and in [4] was “inactive” each time.

The record behind these values is ChEMBL document CHEMBL1649413, “Structure-activity relationship of 4(5)-aryl-2-amino-1H-imidazoles, N1-substituted 2-aminoimidazoles and imidazo[1,2-a]pyrimidinium salts as inhibitors of biofilm formation by Salmonella typhimurium and Pseudomonas aeruginosa” (J Med Chem, 2011).
